Assay results from ChEMBL document CHEMBL1201862, “PubChem BioAssay data set” (2004).
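Compound exposure: 48 hours, 5 concentrations, 96-well plates. Abbreviation: GI50, concentration required for 50% inhibition of growth.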 Calls of active or inactive are those of the source. No stated cut-off is given here; in the data, active = GI50 up to about 1.1 µM and inactive = higher.

Columns and labels:
Assay in all cases: NCI-60 cell line screen, 48 h
[1] = system: LXFL 529
[2] = system: KM-20L2
[3] = system: M19-MEL
[4] = system: HOP-18
[5] = system: RXF 631
[6] = system: DMS-114
[7] = system: SNB-78
[8] = system: DLD-1
[9] = system: XF498

Compound | GI50 [1] | GI50 [2] | GI50 [3] | GI50 [4] | GI50 [5] | GI50 [6] | GI50 [7] | GI50 [8] | GI50 [9]
COC(=O)C(/C(=N\O)C(=O)Nc1ccc(Br)cc1)c1nc2ccccc2nc1O (stereo not given) | 28.6 µM (inactive) | 44 µM (inactive) | 26.1 µM (inactive) | 52.4 µM (inactive) | 46.9 µM (inactive) | 20.9 µM (inactive) | 96.6 µM (inactive) | 35.2 µM (inactive) | –
O=C(CC1(O)C(=O)Nc2c(Cl)cc(Cl)cc21)c1ccc(Br)cc1Br (stereo not given) | – | 18.6 µM (inactive) | 9.04 µM (inactive) | 14.4 µM (inactive) | 4.66 µM (inactive) | 6.56 µM (inactive) | 22.5 µM (inactive) | 5.48 µM (inactive) | 11.6 µM (inactive)
COc1ccc(NC(=O)c2cc(OC)c(OC)c(OC)c2)cc1 | 51.8 µM (inactive) | 32.7 µM (inactive) | 41.7 µM (inactive) | > 64.6 µM (inactive) | > 56.4 µM (inactive) | 25.7 µM (inactive) | 42.7 µM (inactive) | 50.6 µM (inactive) | > 100 µM (inactive)
COc1ccc(CNC2=C(NC(C)=O)C(=O)c3ccccc3C2=O)cc1 | 8.07 µM (inactive) | 28.8 µM (inactive) | 9.48 µM (inactive) | – | – | – | 11.9 µM (inactive) | 8.53 µM (inactive) | –
CCCN(CCCCC(NC(C)=O)C(=O)NCc1ccccc1)C(=O)N(CCCl)N=O (stereo not given) | > 100 µM (inactive) | > 100 µM (inactive) | > 82.6 µM (inactive) | > 100 µM (inactive) | > 100 µM (inactive) | 98.2 µM (inactive) | > 100 µM (inactive) | > 68.9 µM (inactive) | > 100 µM (inactive)
Oc1cc(-c2cccc(F)c2)nc2cc3c(cc12)OCO3 | 0.463 µM (active) | – | 0.272 µM (active) | 5.42 µM (inactive) | – | 0.239 µM (active) | 0.343 µM (active) | 0.252 µM (active) | 0.495 µM (active)
O=[N+]([O-])C(/C=N/Nc1ccccc1)/C=N/Nc1ccccc1 | > 100 µM (inactive) | > 100 µM (inactive) | > 100 µM (inactive) | > 100 µM (inactive) | – | > 100 µM (inactive) | > 100 µM (inactive) | > 100 µM (inactive) | > 100 µM (inactive)
CN(N=O)C(=O)N(N)CCCCC(NC(=O)OCc1ccccc1)C(=O)OCc1ccccc1 (stereo not given) | 53.2 µM (inactive) | > 100 µM (inactive) | 36.1 µM (inactive) | – | – | 44 µM (inactive) | 31.9 µM (inactive) | 58.7 µM (inactive) | 8.41 µM (inactive)
CC1=C(C(=O)NCc2ccccc2)C(c2ccccc2O)C(C(=O)NCc2ccccc2)=C(C)N1 | 15 µM (inactive) | 19.9 µM (inactive) | 18.2 µM (inactive) | 23.9 µM (inactive) | – | 18.2 µM (inactive) | 27.9 µM (inactive) | 15.1 µM (inactive) | 17 µM (inactive)
COc1cc(OC)c2c(=O)c3c([N+](=O)[O-])cccc3n(C)c2c1 | > 100 µM (inactive) | > 100 µM (inactive) | > 100 µM (inactive) | > 100 µM (inactive) | – | > 100 µM (inactive) | > 100 µM (inactive) | > 100 µM (inactive) | –
COc1ccc2n[se]nc2c1 | > 100 µM (inactive) | > 100 µM (inactive) | – | < 0.01 µM (active) | 61.4 µM (inactive) | > 100 µM (inactive) | > 100 µM (inactive) | > 100 µM (inactive) | > 100 µM (inactive)
N#CCN1CCOCCOCCN(CC#N)CCOCCOCC1 | > 100 µM (inactive) | > 100 µM (inactive) | > 100 µM (inactive) | > 100 µM (inactive) | > 100 µM (inactive) | > 100 µM (inactive) | > 100 µM (inactive) | > 100 µM (inactive) | –
C#CC1/C(=C\C(=O)OC)CCCC1O (stereo not given) | > 100 µM (inactive) | > 100 µM (inactive) | > 100 µM (inactive) | > 100 µM (inactive) | – | > 100 µM (inactive) | > 100 µM (inactive) | > 100 µM (inactive) | > 100 µM (inactive)
C=C(C)C(=O)OC1CC2=CC(CC3(C)OC3C3OC(=O)C(=C)C13)OC2=O (stereo not given) | 2.51 µM (inactive) | 15 µM (inactive) | 6.62 µM (inactive) | 19.9 µM (inactive) | 15.8 µM (inactive) | 15.2 µM (inactive) | 12.1 µM (inactive) | 1.99 µM (inactive) | –
CCOC(=O)Nc1cc2c(c(N)n1)N=C(c1ccccc1)[C@H](C)N2 [MIVOBULIN ISETHIONATE] | < 0.0001 µM (active) | < 0.0001 µM (active) | < 0.0001 µM (active) | 0.641 µM (active) | – | < 0.0001 µM (active) | 0.01 µM (active) | < 0.0001 µM (active) | < 0.0001 µM (active)
CCC(=O)C12OC3OC(C)(C)OC3C1OC(C)(C)O2 (stereo not given) | – | – | > 100 µM (inactive) | – | > 100 µM (inactive) | – | > 100 µM (inactive) | > 100 µM (inactive) | > 100 µM (inactive)
COc1ccc(/C=C2\CCC(C)(CN(C)C)C2=O)cc1OC (stereo not given) | > 100 µM (inactive) | > 100 µM (inactive) | > 100 µM (inactive) | > 100 µM (inactive) | > 100 µM (inactive) | > 100 µM (inactive) | > 100 µM (inactive) | > 100 µM (inactive) | –
O=C(CSc1nnc(Cc2ccccc2)o1)Nc1ccc(Cl)cc1 | 86.3 µM (inactive) | 78.5 µM (inactive) | > 100 µM (inactive) | > 100 µM (inactive) | – | 39.4 µM (inactive) | > 100 µM (inactive) | > 100 µM (inactive) | –
OC(c1ccccc1)(c1ccccc1)c1cccnc1 | – | > 100 µM (inactive) | > 100 µM (inactive) | > 100 µM (inactive) | – | > 100 µM (inactive) | > 100 µM (inactive) | > 100 µM (inactive) | > 100 µM (inactive)
CNC(=O)CN(CC(=O)O)C(=O)NC | > 100 µM (inactive) | – | > 100 µM (inactive) | – | > 100 µM (inactive) | – | > 100 µM (inactive) | > 100 µM (inactive) | > 100 µM (inactive)
CC(=O)Oc1cc2c(cc1OC(C)=O)C1(C)CCC2(C)c2cc(OC(C)=O)c(OC(C)=O)cc21 | 4.99 µM (inactive) | 26 µM (inactive) | 9.04 µM (inactive) | – | 23.2 µM (inactive) | – | 16 µM (inactive) | 17.7 µM (inactive) | 11.4 µM (inactive)
COc1cc2c(cc1OC)c1c(OC)c(OC)cc3c1c1c2sc(=S)n1CC3 | 35.1 µM (inactive) | > 100 µM (inactive) | 34.4 µM (inactive) | > 100 µM (inactive) | – | 29.3 µM (inactive) | > 100 µM (inactive) | 43 µM (inactive) | –
COc1ccc(C2C(Cl)C(=O)N2n2cnc3ccccc3c2=O)cc1OC (stereo not given) | > 100 µM (inactive) | > 100 µM (inactive) | > 100 µM (inactive) | 25.3 µM (inactive) | – | > 100 µM (inactive) | > 100 µM (inactive) | – | > 100 µM (inactive)
CC(=O)OC1COC(N2C(=O)/C(=N\Nc3ccc([N+](=O)[O-])cc3)c3cc(Br)c([N+](=O)[O-])cc32)C(OC(C)=O)C1OC(C)=O (stereo not given) | 21.8 µM (inactive) | 32.1 µM (inactive) | > 100 µM (inactive) | > 100 µM (inactive) | 22.2 µM (inactive) | – | 27.2 µM (inactive) | > 100 µM (inactive) | 32.8 µM (inactive)
Cc1nc2ccccc2c(=O)n1NC(=S)Nc1ccc(Cl)cc1[N+](=O)[O-] | > 100 µM (inactive) | > 100 µM (inactive) | > 100 µM (inactive) | – | – | > 100 µM (inactive) | – | – | –
C[P+](C)(CC(F)(F)F)c1ccccc1 | > 100 µM (inactive) | > 100 µM (inactive) | > 100 µM (inactive) | > 100 µM (inactive) | – | > 100 µM (inactive) | > 100 µM (inactive) | > 100 µM (inactive) | < 0.01 µM (active)
